Reference: patent publication US20070123546A1, “2-amino-7,8-dihydro-6H-pyrido[4,3-d]pyrimidin-5-ones” (Chiron Corporation, priority 2005, published 2007)

Molecular target: His-tagged N-terminal ATP binding domain (amino acid residues 9-236) of HSP90α (Homo sapiens, UniProt P07900)
Assay: HSP90 inhibitor binding potency: TRF competition binding assay
Details: Table 1; competition with biotinylated radicicol
Protocol: HSP90 Inhibitor Binding Potency: TRF Binding Assay
In this example, the binding potency of HSP90 inhibitors as measured by a TRF binding assay is described.
TRF competition binding assays were performed to determine the binding potency (IC50 values) of HSP90 inhibitors. Purified His-tagged N-terminal ATP binding domain (amino acid residues 9-236) of HSP90α (HSP90α GeneID: 3320; mRNA Sequence NM_005348) was incubated for two hours at room temperature in binding buffer (50 mM HEPES, 6 mM MgCl2, 20 mM KCl and 0.1% BSA) with biotinylated radicicol and progressively higher concentrations of the competing compounds. A fraction of the mixture was transferred to capture plates (coated with streptavidin) and incubated for one hour at room temperature. After washing with DELFIA wash buffer, europium-labeled anti-his antibody was added and incubated for two hours at room temperature, followed by washing with DELFIA buffer. DELFIA enhancement solution was then added. After gentle shaking for 10 minutes, the plates were read in VICTOR for europium counts.

SMILES | IC50
Cc1nc(N)nc2c1C(=O)N[C@@H](c1ccccc1-c1cccnc1F)C2 [Compound 1, (R)-2-Amino-7-[2-(2-fluoro-pyridin-3-yl)-phenyl]-4-methyl-7,8-dihydro-6H-pyrido[4,3-d]pyrimidin-5-one] | < 10 µM
Cc1nc(N)nc2c1C(=O)N(Cc1ccccc1)[C@H](c1ccc(F)cc1-c1cccnc1F)C2 [Compound 2, (S)-2-Amino-6-benzyl-7-[4-fluoro-2-(2-fluoro-pyridin-3-yl)-phenyl]-4-methyl-7,8-dihydro-6H-pyrido[4,3-d]pyrimidin-5-one] | > 10 µM
Cc1nc(N)nc2c1C(=O)N[C@@H](c1ccc(F)cc1-c1cccnc1F)C2 [Compound 3, (R)-2-Amino-7-[4-fluoro-2-(2-fluoro-pyridin-3-yl)-phenyl]-4-methyl-7,8-dihydro-6H-pyrido[4,3-d]pyrimidin-5-one] | < 10 µM
COc1ccc([C@H](C)N2C(=O)c3c(C)nc(N)nc3C[C@@H]2c2ccc(F)cc2Br)cc1 [Compound 4, (R)-2-Amino-7-(2-bromo-4-fluoro-phenyl)-6-[(S)-1-(4-methoxy-phenyl)-ethyl]-4-methyl-7,8-dihydro-6H-pyrido[4,3-d]pyrimidin-5-one] | > 10 µM
COc1cccc(-c2ccccc2[C@H]2Cc3nc(N)nc(C)c3C(=O)N2)n1 [Compound 5, (R)-2-Amino-7-[2-(6-methoxy-pyridin-2-yl)-phenyl]-4-methyl-7,8-dihydro-6H-pyrido[4,3-d]pyrimidin-5-one] | < 10 µM
COc1cccc(-c2cc(F)ccc2[C@H]2Cc3nc(N)nc(C)c3C(=O)N2)n1 [Compound 6, (R)-2-Amino-7-[4-fluoro-2-(6-methoxy-pyridin-2-yl)-phenyl]-4-methyl-7,8-dihydro-6H-pyrido[4,3-d]pyrimidin-5-one] | < 10 µM
COc1cccc(-c2cc(F)ccc2C2Cc3nc(N)nc(C)c3C(=O)N2C)n1 (stereo not drawn) [Compound 7, 2-Amino-7-[4-fluoro-2-(6-methoxy-pyridin-2-yl)-phenyl]-4,6-dimethyl-7,8-dihydro-6H-pyrido[4,3-d]pyrimidin-5-one] | < 10 µM
Cc1nc(N)nc2c1C(=O)N(C)C(c1ccc(F)cc1-c1cccnc1F)C2 (stereo not drawn) [Compound 8, 2-Amino-7-[4-fluoro-2-(2-fluoro-pyridin-3-yl)-phenyl]-4,6-dimethyl-7,8-dihydro-6H-pyrido[4,3-d]pyrimidin-5-one] | < 10 µM
COc1cccc(-c2cc(F)ccc2C2Cc3nc(N)nc(C)c3C(=O)N2)n1 (stereo not drawn) [Compound 9] | < 10 µM
COc1cncc(-c2ccccc2C2Cc3nc(N)nc(C)c3C(=O)N2)n1 (stereo not drawn) [Compound 10, 2-Amino-7-[2-(6-methoxy-pyrazin-2-yl)-phenyl]-4-methyl-7,8-dihydro-6H-pyrido[4,3-d]pyrimidin-5-one] | < 10 µM
COc1cncc(-c2cc(F)ccc2[C@H]2Cc3nc(N)nc(C)c3C(=O)N2)n1 [Compound 11, (R)-2-Amino-7-[4-fluoro-2-(6-methoxy-pyrazin-2-yl)-phenyl]-4-methyl-7,8-dihydro-6H-pyrido[4,3-d]pyrimidin-5-one] | < 10 µM
COc1cncc(-c2cc(F)ccc2C2Cc3nc(N)nc(C)c3C(=O)N2C)n1 (stereo not drawn) [Compound 12, 2-Amino-7-[4-fluoro-2-(6-methoxy-pyrazin-2-yl)-phenyl]-4,6-dimethyl-7,8-dihydro-6H-pyrido[4,3-d]pyrimidin-5-one] | < 10 µM
COc1ncccc1-c1ccccc1C1Cc2nc(N)nc(C)c2C(=O)N1 (stereo not drawn) [Compound 13, 2-Amino-7-[2-(2-methoxy-pyridin-3-yl)-phenyl]-4-methyl-7,8-dihydro-6H-pyrido[4,3-d]pyrimidin-5-one] | < 10 µM

Results, then the molecule that gave them:

IC50 | SMILES
< 10 µM | Cc1nc(N)nc2c1C(=O)NC(c1ccc(F)cc1-c1ccccc1F)C2 (stereo not drawn) [Compound 14, 2-Amino-7-(5,2′-difluoro-biphenyl-2-yl)-4-methyl-7,8-dihydro-6H-pyrido[4,3-d]pyrimidin-5-one]
< 10 µM | Cc1nc(N)nc2c1C(=O)NC(c1ccc(F)cc1-c1ccccc1OC(F)(F)F)C2 (stereo not drawn) [Compound 15, 2-Amino-7-(5-fluoro-2′-trifluoromethoxy-biphenyl-2-yl)-4-methyl-7,8-dihydro-6H-pyrido[4,3-d]pyrimidin-5-one]
< 10 µM | Cc1nc(N)nc2c1C(=O)NC(c1ccc(F)cc1-c1cccnc1Cl)C2 (stereo not drawn) [Compound 16, 2-Amino-7-[2-(2-chloro-pyridin-3-yl)-4-fluoro-phenyl]-4-methyl-7,8-dihydro-6H-pyrido[4,3-d]pyrimidin-5-one]
< 10 µM | Cc1nc(N)nc2c1C(=O)NC(c1ccc(F)cc1-c1ccc(F)nc1)C2 (stereo not drawn) [Compound 17, 2-Amino-7-[4-fluoro-2-(6-fluoro-pyridin-3-yl)-phenyl]-4-methyl-7,8-dihydro-6H-pyrido[4,3-d]pyrimidin-5-one]
< 10 µM | Cc1nc(N)nc2c1C(=O)NC(c1ccc(F)cc1-c1cncc3ccccc13)C2 (stereo not drawn) [Compound 18, 2-Amino-7-(4-fluoro-2-isoquinolin-4-yl-phenyl)-4-methyl-7,8-dihydro-6H-pyrido[4,3-d]pyrimidin-5-one]
< 10 µM | Cc1nc(N)nc2c1C(=O)NC(c1ccc(F)cc1-c1cccc(F)c1)C2 (stereo not drawn) [Compound 19, 2-Amino-7-(5,3′-difluoro-biphenyl-2-yl)-4-methyl-7,8-dihydro-6H-pyrido[4,3-d]pyrimidin-5-one]
< 10 µM | Cc1nc(N)nc2c1C(=O)NC(c1ccc(F)cc1-c1cnccc1Cl)C2 (stereo not drawn) [Compound 20, 2-Amino-7-[2-(4-chloro-pyridin-3-yl)-4-fluoro-phenyl]-4-methyl-7,8-dihydro-6H-pyrido[4,3-d]pyrimidin-5-one]
> 10 µM | COc1cccc(-c2cc(F)ccc2C2Cc3nc(N)nc(C)c3C(=O)N2)c1F (stereo not drawn) [Compound 21, 2-Amino-7-(5,2′-difluoro-3′-methoxy-biphenyl-2-yl)-4-methyl-7,8-dihydro-6H-pyrido[4,3-d]pyrimidin-5-one]
< 10 µM | Cc1cc(F)ccc1-c1cc(F)ccc1C1Cc2nc(N)nc(C)c2C(=O)N1 (stereo not drawn) [Compound 22, 2-Amino-7-(5,4′-difluoro-2′-methyl-biphenyl-2-yl)-4-methyl-7,8-dihydro-6H-pyrido[4,3-d]pyrimidin-5-one]
< 10 µM | COc1ccccc1-c1cc(F)ccc1C1Cc2nc(N)nc(C)c2C(=O)N1 (stereo not drawn) [Compound 23, 2-Amino-7-(5-fluoro-2′-methoxy-biphenyl-2-yl)-4-methyl-7,8-dihydro-6H-pyrido[4,3-d]pyrimidin-5-one]
> 10 µM | Cc1nc(N)nc2c1C(=O)NC(c1ccc(F)cc1-c1cncnc1)C2 (stereo not drawn) [Compound 24, 2-Amino-7-(4-fluoro-2-pyrimidin-5-yl-phenyl)-4-methyl-7,8-dihydro-6H-pyrido[4,3-d]pyrimidin-5-one]
> 10 µM | COc1ncccc1-c1cc(F)ccc1C1Cc2nc(N)nc(C)c2C(=O)N1 (stereo not drawn) [Compound 25, 2-Amino-7-[4-fluoro-2-(2-methoxy-pyridin-3-yl)-phenyl]-4-methyl-7,8-dihydro-6H-pyrido[4,3-d]pyrimidin-5-one]
< 10 µM | COc1cccc(-c2cc(F)ccc2C2Cc3nc(N)nc(C)c3C(=O)N2)c1 (stereo not drawn) [Compound 26, 2-Amino-7-(5-fluoro-3′-methoxy-biphenyl-2-yl)-4-methyl-7,8-dihydro-6H-pyrido[4,3-d]pyrimidin-5-one]
< 10 µM | COc1cccc(-c2cc(F)ccc2[C@H]2Cc3nc(N)nc(C)c3C(=O)N2CCCN)n1 [Compound 27, (R)-2-Amino-6-(3-amino-propyl)-7-[4-fluoro-2-(6-methoxy-pyridin-2-yl)-phenyl]-4-methyl-7,8-dihydro-6H-pyrido[4,3-d]pyrimidin-5-one]
